# Assay results as given in patent US9968624B2, “Depression treatment agent” (THE UNIVERSITY OF TOKYO, priority 2014, dated 2018).
# Assays:
# [1] = system: mice (C57BL/6 strain, male); experiment: Forced swim test (5S-ManNAcF intracerebroventricular administration, one week); format: in vivo, mouse
# Protocol: Similar to Example 3, 5S-ManNAcF (0.01, 0.1, 1 mmol/L administration group: each 9-10 mice) was administered intracerebroventricularly. The dosing period was one week. The mice of the control group in the same age in weeks were administered with saline (control group: each 9-10 mice, SAL).
# A forced swim test similar to that in Example 1 was performed at 1 week after administration.
# [2] = system: mice (C57BL/6 strain, male); experiment: Forced swim test (5S-ManNAcF, ManNAc, intracerebroventricular administration, 3 weeks); format: in vivo, mouse; conditions: 0.1 mmol/L in saline, intracerebroventricular by osmotic pump for 3 weeks, vs saline
# Protocol: Using 8-9-week-old mice (C57BL/6 strain, male) having a catheter transplanted in the cerebroventricle, and carrying a connected osmotic pump (0.11 μl/hr, Alzet, No1004, 100 μl is released in 28 days) on the back, 5S-ManNAcF (0.01, 0.1 mmol/L) or ManNAc (100 mmol/L) dissolved in saline was intracerebroventricularly administered for 3 weeks (administration group: each 9-10 mice). The mice of the control group in the same age in weeks were administered with saline (control group: each 9-10 mice, SAL).
# A forced swim test similar to that in Example 1 was performed at 3 weeks after administration.
# [3] = system: juvenile mice (C57BL/6 strain, male); experiment: Social defeat test; format: in vivo, mouse; conditions: defeat stress experience mice, 5 mg/ml in drinking water for 4 weeks, latter 3 min of 5 min
# Protocol: Under conditions similar to those in Example 1, ManNAc was administered to juvenile mice (C57BL/6 strain, male) by administration by free drinking of water for 4 weeks in total from 10-week-old to 14-week-old (ManNAc administration group: 14 mice). The mice of the control group in the same age in weeks were allowed to take drinking water freely (control group: 14 mice).
# A mouse that lived with a more aggressive mouse (aggressive mouse) for a given period (1 hr) stays away from the aggressive mouse thereafter. This test method reflects higher brain functions, and was developed as a social defeat test and widely utilized as a system for evaluating social anxiety (Nature (2008) 455, 894-902). The ManNAc administration group and the control group were made to stay together with an aggressive mouse (one-to-one) for 1 hr per day, and the defeat stress was imposed for 5 days. […] The number of times the defeat stress experience mouse intruded a contact zone formed on the periphery of the compartment in which the aggressive mouse was housed, and the sniffing time of the defeat stress experience mouse were measured in the latter 3 minutes of 5 minutes. […]
# [4] = system: mice (C57BL/6 strain, male); experiment: Forced swim test (ManNAc oral administration); format: in vivo, mouse; conditions: juvenile mice (10- to 14-week-old), 5 mg/ml in drinking water for 4 weeks, 6 min test; control group about 2 min
# Protocol: ManNAc was dissolved in drinking water, and drinking water having a concentration of 5 mg/ml was administered to juvenile mice (C57BL/6 strain, male) by administration by free drinking of water for 4 weeks in total from 10-week-old to 14-week-old (ManNAc administration group: 16 mice). The mice of the control group in the same age in weeks were allowed to take drinking water freely (control group: 16 mice).
# Similarly, 5 mg/ml ManNAc-containing drinking water was administered to aged mice (C57BL/6 strain, male) by administration by free drinking of water for 4 weeks in total from […] (ManNAc administration group: 14 mice). The mice of the control group in the same age in weeks were allowed to take drinking water freely (control group: 15 mice).
# According to the method described in S. C. […] The mice were graded with regard to 4 evaluation criteria: swimming, immobility, climbing, and others, and a dominant behavior was recorded every 5 sec. […]
# When a mouse is forcibly placed in a water pool, it tries to swim to the shore. […] The forced swim test for 6 min enables quantification of immobility in a water tank, and the immobility has been proposed to be similar to “behavioral despair”, observed in depression.
# [5] = system: mice (BALB/c and C57BL/6 strains); conditions: BALB/c strain, fluoxetine 10 mg/kg/day; drug non-administration group about 125-130 sec; cited from earlier work
smiles,measurement,setting,value
O=C(CF)NC1C(O)SC(CO)[C@@H](O)C1O (stereo partly drawn) [5S-ManNAcF],total immobilization time as compared to the control group,"[1]; 0.1 mmol/L in saline, intracerebroventricular by osmotic pump for one week, vs saline",significantly decreased
same,"effect on total immobilization time, comparison of concentrations","[1]; 0.1 mmol/L vs 1 mmol/L, intracerebroventricular for one week",tendency of a higher effect at a concentration of 0.1 mmol/L than a high dose of 1 mmol/L
same,total immobilization time as compared to the control group,[2],significantly decreased
"CC(=O)N[C@@H]1C(O)O[C@H](CO)[C@@H](O)[C@@H]1O (stereo partly drawn) [ManNAc, N-acetyl-D-mannosamine]",contact zone intrusion number,[3],a significant difference was not found
same,sniffing time (sniffing behavior),"[3]; water group about 20 sec or below, stress non-experience group about 30 sec",about 30 sec
same,total immobilization time,[4],about 1 min
CNCCC(Oc1ccc(C(F)(F)F)cc1)c1ccccc1 (stereo not shown) [fluoxetine],immobilization time,[5],about 100 sec
